In ChEMBL document CHEMBL4251740, “Further Exploring Solvent-Exposed Tolerant Regions of Allosteric Binding Pocket for Novel HIV-1 NNRTIs Discovery” (ACS Med Chem Lett, 2018):
Activity calls are given as the source filed them. The rule behind the calls is not given here.

Experiments:
[1] = (§1) Cytotoxicity against human MT4 cells assessed as reduction in cell viability by MTT assay; type: cell-based; details: MT4 cells
[2] = Selectivity index, ratio of CC50 for human MT4 cells to EC50 for wild-type HIV1 3B reverse transcriptase infected in human MT4 cells; type: toxicity, cell-based; details: read-out: Ratio CC50/EC50
[3] = Selectivity index, ratio of CC50 for human MT4 cells to EC50 for HIV1 RES056 reverse transcriptase K103N/Y181C double mutant infected in human MT4 cells; type: toxicity, cell-based; details: read-out: Ratio CC50/EC50
[4] = system: Human immunodeficiency virus 1; experiment: Fold resistance, ratio of EC50 for HIV1 reverse transcriptase Y181C mutant infected in human MT4 cells to EC50 for wild-type HIV1 3B reverse transcriptase infected in human MT4 cells; type: cell-based
[5] = system: Human immunodeficiency virus type 1 reverse transcriptase (Human immunodeficiency virus 1), Q72547 [L100I]; experiment: Inhibition of HIV1 reverse transcriptase L100I mutant infected in human MT4 cells assessed as protection against virus-induced cytotoxicity by MTT assay; type: cell-based
[6] = system: Human immunodeficiency virus type 1 reverse transcriptase (Human immunodeficiency virus 1), Q72547 [Y181C]; experiment: Inhibition of HIV1 reverse transcriptase Y181C mutant infected in human MT4 cells assessed as protection against virus-induced cytotoxicity by MTT assay; type: cell-based
[7] = system: Human immunodeficiency virus type 1 reverse transcriptase (Human immunodeficiency virus 1), Q72547 [R221A]; experiment: Inhibition of HIV1 reverse transcriptase Y188L mutant infected in human MT4 cells assessed as protection against virus-induced cytotoxicity by MTT assay; type: cell-based
[8] = system: Human immunodeficiency virus type 1 reverse transcriptase (Human immunodeficiency virus 1), Q72547 [F227L,V106A]; experiment: Inhibition of HIV1 RES056 reverse transcriptase F227L/V106A double mutant infected in human MT4 cells assessed as protection against virus-induced cytotoxicity by MTT assay; type: cell-based
[9] = system: Human immunodeficiency virus 1; experiment: Fold resistance, ratio of EC50 for HIV1 reverse transcriptase K103N mutant infected in human MT4 cells to EC50 for wild-type HIV1 3B reverse transcriptase infected in human MT4 cells; type: cell-based
[10] = system: Human immunodeficiency virus 1; experiment: Fold resistance, ratio of EC50 for HIV1 reverse transcriptase E138K mutant infected in human MT4 cells to EC50 for wild-type HIV1 3B reverse transcriptase infected in human MT4 cells; type: cell-based
[11] = target: Human immunodeficiency virus type 1 reverse transcriptase (Human immunodeficiency virus 1) (UniProt Q72547); experiment: Potency index, ratio of ETV EC50 to test compound EC50 for wild-type HIV1 3B reverse transcriptase infected in human MT4 cells; type: cell-based
[12] = system: Human immunodeficiency virus type 1 reverse transcriptase (Human immunodeficiency virus 1), Q72547 [L100I]; experiment: Potency index, ratio of ETV EC50 to test compound EC50 for HIV1 reverse transcriptase L100I mutant infected in human MT4 cells; type: cell-based
[13] = system: Human immunodeficiency virus type 1 reverse transcriptase (Human immunodeficiency virus 1), Q72547 [K103N,Y181C]; experiment: Potency index, ratio of ETV EC50 to test compound EC50 for HIV1 RES056 reverse transcriptase K103N/Y181C double mutant infected in human MT4 cells; type: cell-based
[14] = system: Human immunodeficiency virus type 1 reverse transcriptase (Human immunodeficiency virus 1), Q72547 [F227L,V106A]; experiment: Potency index, ratio of ETV EC50 to test compound EC50 for HIV1 RES056 reverse transcriptase F227L/V106A double mutant infected in human MT4 cells; type: cell-based
[15] = system: Human immunodeficiency virus type 1 reverse transcriptase (Human immunodeficiency virus 1), Q72547 [K103N]; experiment: Potency index, ratio of ETV EC50 to test compound EC50 for HIV1 reverse transcriptase K103N mutant infected in human MT4 cells; type: cell-based
[16] = system: Human immunodeficiency virus type 1 reverse transcriptase (Human immunodeficiency virus 1), Q72547 [R221A]; experiment: Potency index, ratio of ETV EC50 to test compound EC50 for HIV1 reverse transcriptase Y188L mutant infected in human MT4 cells; type: cell-based
[17] = system: Human immunodeficiency virus type 1 reverse transcriptase (Human immunodeficiency virus 1), Q72547 [E138K]; experiment: Potency index, ratio of ETV EC50 to test compound EC50 for HIV1 reverse transcriptase E138K mutant infected in human MT4 cells; type: cell-based
[18] = system: Human immunodeficiency virus type 1 reverse transcriptase (Human immunodeficiency virus 1), Q72547 [K103N]; experiment: Inhibition of HIV1 reverse transcriptase K103N mutant infected in human MT4 cells assessed as protection against virus-induced cytotoxicity by MTT assay; type: cell-based
[19] = system: MT4; experiment: as §1; type: cell-based; details: mt4

Cc1cc(C#N)cc(C)c1Oc1nc(NC2CCN(Cc3ccc(S(N)(=O)=O)cc3)CC2)nc2ccn(COCc3ccccc3)c12
CC50 [1]: 4.84 µM
selectivity ratio [2]: 632
selectivity ratio [3]: 10
Ratio EC50 [4]: 0.5 to 0.7

O=C1Nc2ccc(Cl)cc2[C@@](C#CC2CC2)(C(F)(F)F)O1 [EFAVIRENZ]
CC50 [1]: > 6.34 µM

Cc1cc(C#N)cc(C)c1Oc1nc(NC2CCN(Cc3cc(=O)[nH]c(=O)[nH]3)CC2)nc2ccsc12
CC50 [1]: 133 µM
selectivity ratio [2]: 18600
selectivity ratio [3]: 15
inhibition [5]: inactive
inhibition [6]: inactive
inhibition [7]: inactive
inhibition [8]: inactive

Cc1cc(C#Cc2ccccn2)cc(C)c1Oc1nc(NC2CCN(Cc3ccc(S(N)(=O)=O)cc3)CC2)nc2ccsc12
CC50 [1]: 10.3 µM
selectivity ratio [2]: 1130
selectivity ratio [3]: 12

Cc1cc(C#N)cc(C)c1Oc1nc(NC2CCN(Cc3ccc(S(C)(=O)=O)cc3)CC2)nc2ccn(S(=O)(=O)c3ccccc3)c12
CC50 [1]: 5.15 µM
selectivity ratio [2]: 270
selectivity ratio [3]: 26

Cc1cc(C#N)cc(C)c1Oc1nc(NC2CCN(Cc3n[nH]c(=O)n3C)CC2)nc2ccsc12
CC50 [1]: > 254 µM
selectivity ratio [2]: > 18500
selectivity ratio [3]: > 15

Cc1cc(C#N)cc(C)c1Oc1nc(NC2CCN(Cc3ccc(S(N)(=O)=O)cc3)CC2)nc2ccn(S(=O)(=O)c3ccccc3)c12
CC50 [1]: 3.67 µM
selectivity ratio [2]: 454
selectivity ratio [3]: 33

Cc1cc(C#N)cc(C)c1Oc1nc(NC2CCN(Cc3c[nH]cn3)CC2)nc2ccsc12
CC50 [1]: 24.3 µM
selectivity ratio [2]: 4420
selectivity ratio [3]: 21
inhibition [5]: inactive
inhibition [6]: inactive
inhibition [7]: inactive
inhibition [8]: inactive

Cc1cc(C#N)cc(C)c1Oc1nc(NC2CCN(Cc3ccc(N4CCCC4)cc3)CC2)nc2ccsc12
CC50 [1]: 4.35 µM
selectivity ratio [2]: 133
selectivity ratio [3]: < 1

Cc1cc(C#N)cc(C)c1Oc1nc(Nc2ccc(C#N)cc2)nc(N)c1Br [ETRAVIRINE]
CC50 [1]: 2.16 to 4.59 µM

Cc1cc(/C=C/C#N)cc(C)c1Nc1nc(NC2CCN(Cc3ccc(S(N)(=O)=O)cc3)CC2)nc2ccsc12
CC50 [1]: 2.3 µM
selectivity ratio [2]: 1880
selectivity ratio [3]: 419

Cc1cc(C#Cc2cccnc2)cc(C)c1Oc1nc(NC2CCN(Cc3ccc(S(N)(=O)=O)cc3)CC2)nc2ccsc12
CC50 [1]: 6.39 µM
selectivity ratio [2]: 157
selectivity ratio [3]: 42

Cc1cc(C#N)cc(C)c1Oc1nc(NC2CCN(Cc3ccc(C(N)=O)cc3)CC2)nc2cc[nH]c12
CC50 [1]: 15.9 µM
selectivity ratio [2]: 1830
selectivity ratio [3]: 118
Ratio EC50 [9]: 0.3 to 0.6

Cc1cc(C#N)cc(C)c1Oc1nc(NC2CCN(Cc3ccc(C(N)=O)cc3)CC2)nc2ccn(COCc3ccccc3)c12
CC50 [1]: 6.44 µM
selectivity ratio [2]: 177
selectivity ratio [3]: 9
Ratio EC50 [4]: 0.5 to 0.7
Ratio EC50 [10]: 0.9

Cc1cc(C#N)cc(C)c1Oc1nc(NC2CCN(Cc3ccc(S(C)(=O)=O)cc3)CC2)nc2cc[nH]c12
CC50 [1]: 8.12 µM
selectivity ratio [2]: 589
selectivity ratio [3]: 16
Ratio EC50 [9]: 0.3 to 0.6

Cc1cc(C#N)cc(C)c1Oc1nc(NC2CCN(Cc3ccc(S(C)(=O)=O)cc3)CC2)nc2ccn(COCc3ccccc3)c12
CC50 [1]: 10 µM
selectivity ratio [2]: 459
selectivity ratio [3]: 17
Ratio EC50 [4]: 0.5 to 0.7

Cc1cc(C#N)cc(C)c1Oc1nc(NC2CCN(Cc3cn(S(C)(=O)=O)cn3)CC2)nc2ccsc12
CC50 [1]: 21.1 µM
selectivity ratio [2]: 3720
selectivity ratio [3]: 8
inhibition [5]: inactive
inhibition [6]: inactive
inhibition [7]: inactive
inhibition [8]: inactive

Cc1cc(C#N)cc(C)c1Oc1nc(NC2CCN(Cc3ccc(S(N)(=O)=O)cc3)CC2)nc2cc[nH]c12
CC50 [1]: 1.91 µM
selectivity ratio [2]: 1050
selectivity ratio [3]: 61
Ratio EC50 [11]: 1.5 to 2.6
Ratio EC50 [12]: 1.5 to 2.6
Ratio EC50 [13]: 1.5 to 2.6
Ratio EC50 [14]: 1.5 to 2.6
Ratio EC50 [15]: 4 to 5
Ratio EC50 [16]: 4 to 5
Ratio EC50 [17]: 4 to 5
Ratio EC50 [9]: 0.3 to 0.6

Cc1cn([C@H]2C[C@H](N=[N+]=[N-])[C@@H](CO)O2)c(=O)[nH]c1=O [ZIDOVUDINE]
CC50 [1]: 7.48 µM
selectivity ratio [2]: > 1000
selectivity ratio [3]: > 448

Cc1cc(C#N)cc(C)c1Oc1nc(NC2CCN(Cc3ccco3)CC2)nc2ccsc12
CC50 [1]: > 254 µM
selectivity ratio [2]: > 76500
inhibition [18]: Active
inhibition [5]: inactive
inhibition [6]: inactive
inhibition [7]: inactive
inhibition [8]: inactive

Cc1cc(C#N)cc(C)c1Oc1nc(NC2CCN(Cc3ccc(C(N)=O)cc3)CC2)nc2ccn(S(=O)(=O)c3ccccc3)c12
CC50 [19]: > 39.3 µM
selectivity ratio [2]: 227
selectivity ratio [3]: 2

Cc1cc(C#N)cc(C)c1Nc1nc(NC2CCN(Cc3ccc(S(N)(=O)=O)cc3)CC2)nc2ccsc12
CC50 [1]: > 227 µM
selectivity ratio [2]: > 159000
selectivity ratio [3]: > 7440

Cc1cc(C#Cc2ccncc2)cc(C)c1Oc1nc(NC2CCN(Cc3ccc(S(N)(=O)=O)cc3)CC2)nc2ccsc12
CC50 [1]: 11.5 µM
selectivity ratio [2]: 340
selectivity ratio [3]: 52

Cc1ccnc2c1NC(=O)c1cccnc1N2C1CC1 [NEVIRAPINE]
CC50 [1]: > 15 µM
